Laboratory results published in PubChem BioAssay AID248 (DTP/NCI, 2004).
Inconclusive results and toxic doses are left out. No stated cut-off is given here; in the data, active means T/C of 150% or more; inactive means T/C below 125%.

Tested on: L1210 leukemia ip in BDF1 mice, survival T/C
Experiment: NCI In Vivo Anticancer Drug Screen. Data for tumor model L1210 Leukemia (intraperitoneal) in B6D2F1 (BDF1) mice
Conditions: endpoint: mean survival time, higher = longer survival
Summary of the method: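 Read-out is survival time, reported as the treated-group measurement over the vehicle-control measurement.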

[1] = dose: 50.0 mg/kg/injection, schedule: Q01DX001 (ip), vehicle: saline
[2] = dose: 100.0 mg/kg/injection, schedule: Q01DX001 (ip), vehicle: saline
[3] = dose: 200.0 mg/kg/injection, schedule: Q01DX001 (ip), vehicle: saline
[4] = dose: 100.0 mg/kg/injection, schedule: Q01DX001 (ip), vehicle: Klucel (hydroxypropylcellulose) (HPC)
[5] = dose: 200.0 mg/kg/injection, schedule: Q01DX001 (ip), vehicle: Klucel (hydroxypropylcellulose) (HPC)
[6] = dose: 400.0 mg/kg/injection, schedule: Q01DX001 (ip), vehicle: Klucel (hydroxypropylcellulose) (HPC)
[7] = dose: 75.0 mg/kg/injection, schedule: Q01DX009 (ip), vehicle: saline with Tween-80
[8] = dose: 150.0 mg/kg/injection, schedule: Q01DX009 (ip), vehicle: saline with Tween-80
[9] = dose: 100.0 mg/kg/injection, schedule: Q01DX009 (ip), vehicle: Klucel (hydroxypropylcellulose) (HPC)
[10] = dose: 100.0 mg/kg/injection, schedule: Q04DX003 (ip), vehicle: Klucel (hydroxypropylcellulose) (HPC)
[11] = dose: 200.0 mg/kg/injection, schedule: Q01DX009 (ip), vehicle: Klucel (hydroxypropylcellulose) (HPC)
[12] = dose: 200.0 mg/kg/injection, schedule: Q04DX003 (ip), vehicle: Klucel (hydroxypropylcellulose) (HPC)
[13] = dose: 400.0 mg/kg/injection, schedule: Q01DX009 (ip), vehicle: Klucel (hydroxypropylcellulose) (HPC)
[14] = dose: 400.0 mg/kg/injection, schedule: Q04DX003 (ip), vehicle: Klucel (hydroxypropylcellulose) (HPC)
[15] = dose: 100.0 mg/kg/injection, schedule: Q01DX009 (ip), vehicle: saline
[16] = dose: 100.0 mg/kg/injection, schedule: Q04DX003 (ip), vehicle: saline
[17] = dose: 200.0 mg/kg/injection, schedule: Q01DX009 (ip), vehicle: saline
[18] = dose: 200.0 mg/kg/injection, schedule: Q04DX003 (ip), vehicle: saline
[19] = dose: 400.0 mg/kg/injection, schedule: Q01DX009 (ip), vehicle: saline
[20] = dose: 400.0 mg/kg/injection, schedule: Q04DX003 (ip), vehicle: saline
[21] = dose: 100.0 mg/kg/injection, schedule: Q04DX003 (ip), vehicle: saline with Tween-80
[22] = dose: 200.0 mg/kg/injection, schedule: Q04DX003 (ip), vehicle: saline with Tween-80
[23] = dose: 400.0 mg/kg/injection, schedule: Q04DX003 (ip), vehicle: saline with Tween-80
[24] = dose: 100.0 mg/kg/injection, schedule: Q01DX001 (ip), vehicle: other

Measured: T/C

CCOC(=O)C1/C(=N\N=C2\c3c(nnp3N(CCOS(C)(=O)=O)CCOS(C)(=O)=O)C(C(=O)OCC)C(c3ccc(OC(C)=O)cc3)C2C(=O)OCC)c2c(nnp2N(CCOS(C)(=O)=O)CCOS(C)(=O)=O)C(C(=O)OCC)C1c1ccc(OC(C)=O)cc1 (configuration not stated)
inactive: [1] 103 % of control | [2] 109 % of control | [3] 109 % of control | dose: 400.0 mg/kg/injection, schedule: Q01DX001 (ip), vehicle: saline 107 % of control

O=[N+]([O-])c1ccc(OCc2ccc(S(=O)(=O)Oc3cccnc3)cc2)c(Cl)c1
inactive: [4] 94 % of control | [5] 98 % of control | [6] 89 % of control

OC(COc1ccccc1)CC(O)(C(F)(F)F)C(F)(F)F (configuration not stated)
inactive: [7] 92 % of control | [8] 89 % of control | dose: 300.0 mg/kg/injection, schedule: Q01DX009 (ip), vehicle: saline with Tween-80 103 % of control

ClC(Cl)(Cl)C1NCCO1 (configuration not stated)
inactive: [9] 96 % of control | [10] 102 % of control | [11] 97 % of control | [12] 94 % of control | [13] 89 % of control | [14] 94 % of control

O=C(O)CCOc1ccccc1[N+](=O)[O-]
inactive: dose: 37.5 mg/kg/injection, schedule: Q01DX009 (ip), vehicle: saline with Tween-80 91 % of control | [7] 91 % of control | [9] 97 % of control | [8] 88 % of control | [11] 87 % of control | [13] 95 % of control

COc1ccc(COC(=O)NC2CCCCC2)cc1OC
inactive: dose: 65.0 mg/kg/injection, schedule: Q01DX009 (ip), vehicle: saline 93 % of control | [15] 93 % of control | [16] 112 % of control | dose: 150.0 mg/kg/injection, schedule: Q01DX009 (ip), vehicle: saline 101 % of control | [17] 104 % of control | [18] 118 % of control | [19] 102 % of control | [20] 102 % of control

CCS(=O)c1c(Cl)c(Cl)c(Cl)c(Cl)c1Cl (configuration not stated)
inactive: [9] 102 % of control | [11] 108 % of control | [13] 95 % of control

Cc1[nH]c2cc(O)c(O)c(C)c2c1C
inactive: [2] 96 % of control

N#CC1CC2c3ccccc3C1c1ccccc12 (configuration not stated)
inactive: [21] 97 % of control | [22] 94 % of control | [23] 100 % of control

O=C(/C(=C/c1ccc2c(c1)OCO2)c1ccccc1)c1ccc(OCCN2CCCC2)cc1
inactive: dose: 100.0 mg/kg/injection, schedule: Q01DX001 (ip), vehicle: carboxymethylcellulose (CMC) 95 % of control | dose: 200.0 mg/kg/injection, schedule: Q01DX001 (ip), vehicle: carboxymethylcellulose (CMC) 106 % of control | dose: 400.0 mg/kg/injection, schedule: Q01DX001 (ip), vehicle: carboxymethylcellulose (CMC) 95 % of control

NC(=O)c1nc(-c2ccccc2)c(-c2ccccc2)[nH]c1=O
inactive: dose: 100.0 mg/kg/injection, schedule: Q01DX009 (ip), vehicle: saline with Tween-80 104 % of control | dose: 200.0 mg/kg/injection, schedule: Q01DX009 (ip), vehicle: saline with Tween-80 95 % of control | dose: 400.0 mg/kg/injection, schedule: Q01DX009 (ip), vehicle: saline with Tween-80 96 % of control

C=CC1CCN(CCn2cc(C)c(=O)[nH]c2=O)CC1
inactive: [21] 101 % of control | [22] 107 % of control | [23] 101 % of control

Cc1cc(C)c(NC(=O)NC2CCCCC2)cc1C
inactive: dose: 100.0 mg/kg/injection, schedule: Q04DX002 (ip), vehicle: Klucel (hydroxypropylcellulose) (HPC) 105 % of control | dose: 200.0 mg/kg/injection, schedule: Q04DX002 (ip), vehicle: Klucel (hydroxypropylcellulose) (HPC) 94 % of control | dose: 400.0 mg/kg/injection, schedule: Q04DX002 (ip), vehicle: Klucel (hydroxypropylcellulose) (HPC) 94 % of control

C/C(=N\NC(=O)C1CCCO1)c1cccc2ccccc12 (configuration not stated)
inactive: dose: 12.5 mg/kg/injection, schedule: Q01DX009 (ip), vehicle: Klucel (hydroxypropylcellulose) (HPC) 97 % of control | dose: 25.0 mg/kg/injection, schedule: Q01DX009 (ip), vehicle: Klucel (hydroxypropylcellulose) (HPC) 114 % of control

CCOC(/C=C/c1ccccc1)OCC
inactive: [16] 93 % of control | [18] 93 % of control | [20] 98 % of control

CCC(Br)(CC)C(=O)c1ccc(OCC(=O)O)c(Cl)c1Cl
inactive: [1] 104 % of control | [2] 96 % of control | [3] 102 % of control

CCCCCCCCCCCCCCCCCC(=O)OCC(=O)C(OC(=O)CCCCCCCCCCCCCCCCC)C(OC(=O)CCCCCCCCCCCCCCCCC)C(COC(=O)CCCCCCCCCCCCCCCCC)OC(=O)CCCCCCCCCCCCCCCCC (configuration not stated)
inactive: [24] 95 % of control | dose: 200.0 mg/kg/injection, schedule: Q01DX001 (ip), vehicle: other 98 % of control | dose: 400.0 mg/kg/injection, schedule: Q01DX001 (ip), vehicle: other 93 % of control

CC1C(=O)CC(c2ccccc2)N(C)C1c1ccccc1 (configuration not stated)
inactive: dose: 75.0 mg/kg/injection, schedule: Q01DX001 (ip), vehicle: saline 96 % of control | dose: 75.0 mg/kg/injection, schedule: Q04DX003 (ip), vehicle: acetone 93 % of control | dose: 150.0 mg/kg/injection, schedule: Q01DX001 (ip), vehicle: saline 91 % of control | dose: 150.0 mg/kg/injection, schedule: Q04DX003 (ip), vehicle: acetone 98 % of control | dose: 300.0 mg/kg/injection, schedule: Q01DX001 (ip), vehicle: saline 100 % of control | dose: 300.0 mg/kg/injection, schedule: Q04DX003 (ip), vehicle: acetone 96 % of control

Cn1c(=O)cc(CC#N)c2ccccc21
inactive: [24] 100 % of control

CC1=CC(=O)C2C(C)(O1)C1C(=O)C=C(C)OC21C (configuration not stated)
inactive: [4] 93 % of control | [10] 101 % of control | [5] 101 % of control | [12] 100 % of control | [6] 104 % of control | [14] 92 % of control

Cc1cc(N=O)c(NO)cc1C
inactive: [9] 108 % of control | [11] 103 % of control | [13] 118 % of control

CCCCNC=O
inactive: [15] 101 % of control | [16] 102 % of control | [17] 106 % of control | [18] 93 % of control | [19] 108 % of control | [20] 111 % of control

CN(C)c1ccc(N=Nc2ccc3c(c2)C(=O)c2ccccc2C3=O)cc1
inactive: dose: 100.0 mg/kg/injection, schedule: Q01DX009 (ip), vehicle: other 104 % of control | dose: 200.0 mg/kg/injection, schedule: Q01DX009 (ip), vehicle: other 105 % of control | dose: 400.0 mg/kg/injection, schedule: Q01DX009 (ip), vehicle: other 98 % of control

CC1(C)Oc2ccccc2O1
inactive: [21] 93 % of control

Nc1nc2c(c(=O)[nH]1)N1CN(c3ccc(C(=O)NC(CCC(=O)O)C(=O)O)cc3)CCC1CN2 (configuration not stated)
inactive: dose: 1.0 mg/kg/injection, schedule: Q01DX009 (ip), vehicle: saline 94 % of control | dose: 2.0 mg/kg/injection, schedule: Q01DX009 (ip), vehicle: saline 100 % of control | dose: 4.0 mg/kg/injection, schedule: Q01DX009 (ip), vehicle: saline 89 % of control | dose: 4.0 mg/kg/injection, schedule: Q04DX003 (ip), vehicle: saline 94 % of control | dose: 8.0 mg/kg/injection, schedule: Q01DX009 (ip), vehicle: saline 100 % of control | dose: 8.0 mg/kg/injection, schedule: Q04DX003 (ip), vehicle: saline 109 % of control | dose: 16.0 mg/kg/injection, schedule: Q01DX009 (ip), vehicle: saline 94 % of control | dose: 16.0 mg/kg/injection, schedule: Q04DX003 (ip), vehicle: saline 87 % of control | dose: 32.0 mg/kg/injection, schedule: Q04DX003 (ip), vehicle: saline 101 % of control | dose: 64.0 mg/kg/injection, schedule: Q04DX003 (ip), vehicle: saline 95 % of control

O=S(=O)(O)C(Nc1ccccn1)c1ccccc1 (configuration not stated)
inactive: dose: 100.0 mg/kg/injection, schedule: Q01DX001 (ip), vehicle: saline with Tween-80 104 % of control
